pIC50: −log10 of the molar value. Calls of active or inactive are those of the source. The calls are words filed in the database; no cut-off is given here.
Key:
L02 = assay: Cytotoxicity against human L02 cells assessed as inhibition of cell growth measured after 72 hrs by MTT assay; type: cell-based; conditions: L02, 72 h
DNA topoisomerase II [1] = target: T1, DNA topoisomerase II (Homo sapiens, UniProt P11388+Q02880); assay: Inhibition of topoisomerase 2 in human HeLa cells assessed as reduction in cell growth measured after 72 hrs by MTT assay; type: cell-based
DNA topoisomerase II [2] = target: T1, DNA topoisomerase II; assay: Inhibition of topoisomerase 2 in human CNE1 cells assessed as reduction in cell growth measured after 72 hrs by MTT assay; type: cell-based
DNA topoisomerase II [3] = target: T1, DNA topoisomerase II; assay: Inhibition of topoisomerase 2 in human HepG2 cells assessed as reduction in cell growth measured after 72 hrs by MTT assay; type: cell-based
DNA topoisomerase II [4] = target: T1, DNA topoisomerase II; assay: Inhibition of topoisomerase 2 in human MDA-MB-231 cells assessed as reduction in cell growth measured after 72 hrs by MTT assay; type: cell-based
DNA topoisomerase II [5] = target: T1, DNA topoisomerase II; assay: Inhibition of topoisomerase 2 in human MCF7 cells assessed as reduction in cell growth measured after 72 hrs by MTT assay; type: cell-based
DNA topoisomerase II [6] = target: T1, DNA topoisomerase II; assay: Inhibition of topoisomerase 2 in human A549 cells assessed as reduction in cell growth measured after 72 hrs by MTT assay; type: cell-based
HepG2 [7] = assay: Induction of morphological changes in human HepG2 cells assessed as nuclear deformation at 2 to 16 uM by confocal microscopic analysis; type: functional, cell-based
HepG2 [8] = assay: Induction of apoptosis in human HepG2 cells assessed as apoptotic cells at 8 uM measured after 48 hrs by Annexin V-APC staining based flow cytometry (reference value: 5.37%); type: functional
[9] = Drug uptake in nucleus of human HepG2 cells at 2 to 16 uM by confocal microscopic analysis; type: ADME, subcellular; conditions: hepg2, 16 µM
HepG2 [10] = assay: Induction of apoptosis in human HepG2 cells assessed as apoptotic cells at 32 uM measured after 48 hrs by Annexin V-APC staining based flow cytometry (reference value: 5.37%); type: functional
HepG2 [11] = assay: Induction of apoptosis in human HepG2 cells measured after 48 hrs by Annexin V-APC staining based flow cytometry; type: functional, cell-based
HepG2 [12] = assay: Induction of apoptosis in human HepG2 cells assessed as apoptotic cells at 4 uM measured after 48 hrs by Annexin V-APC staining based flow cytometry (reference value: 5.37%); type: functional
HepG2 [13] = assay: Induction of morphological changes in human HepG2 cells assessed as nuclear shrinkage at 2 to 16 uM by confocal microscopic analysis; type: functional, cell-based
HepG2 [14] = assay: Induction of apoptosis in human HepG2 cells assessed as apoptotic cells at 16 uM measured after 48 hrs by Annexin V-APC staining based flow cytometry (reference value: 5.37%); type: functional
HepG2 [15] = assay: Induction of apoptosis in human HepG2 cells assessed as formation of granular apoptotic body formation at 4 to 16 uM measured after 48 hrs by Hoechst 33342 staining based fluorescence microscopic analysis; type: functional, cell-based
HepG2 [16] = assay: Induction of apoptosis in human HepG2 cells assessed as cell shrinkage at 4 to 16 uM measured after 48 hrs by Hoechst 33342 staining based fluorescence microscopic analysis; type: functional
[17] = Drug uptake in cytoplasm of human HepG2 cells at 2 to 16 uM by confocal microscopic analysis; type: ADME, subcellular; conditions: hepg2, 16 µM
HepG2 [18] = assay: Induction of morphological changes in human HepG2 cells assessed as appearance of foamy nucleus at 2 to 16 uM by confocal microscopic analysis; type: functional, cell-based

SMILES | pIC50 (L02) | IC50 (DNA topoisomerase II [1]) | IC50 (DNA topoisomerase II [2]) | IC50 (DNA topoisomerase II [3]) | IC50 (DNA topoisomerase II [4]) | IC50 (DNA topoisomerase II [5]) | IC50 (DNA topoisomerase II [6]) | Activity (HepG2 [7]) | Activity (HepG2 [8]) | Drug uptake [9] | Activity (HepG2 [10]) | Activity (HepG2 [11]) | Activity (HepG2 [12]) | Activity (HepG2 [13]) | Activity (HepG2 [14]) | Activity (HepG2 [15]) | Activity (HepG2 [16]) | Drug uptake [17] | Activity (HepG2 [18])
O=C1c2ccccc2C(=O)c2c(O)c(C(O)c3ccc(C(F)(F)F)cc3)cc(O)c21 (centres undefined) | < 4.30 | 20.7 µM | 13.7 µM | 14.9 µM | 38.1 µM | 27.4 µM | 23.3 µM |  |  |  |  |  |  |  |  |  |  |  | 
O=C1c2ccccc2C(=O)c2c(O)c(C(c3ccc(OC(F)(F)F)cc3)N(CCCl)CCCl)cc(O)c21 (centres undefined) | < 4.30 | > 50 µM | 11.3 µM | > 50 µM | 34.8 µM | 42.8 µM | > 50 µM |  |  |  |  |  |  |  |  |  |  |  | 
O=C1c2ccccc2C(=O)c2c(O)c(C(O)c3ccc(Cl)s3)cc(O)c21 (centres undefined) | < 4.30 | 21.2 µM | 17.75 µM | 24.4 µM | 47.2 µM | 29.3 µM | 33 µM |  |  |  |  |  |  |  |  |  |  |  | 
O=C1c2ccccc2C(=O)c2c(O)c(C(O)c3cccs3)cc(O)c21 (centres undefined) | < 4.30 | 36.2 µM | 16.6 µM | 37.9 µM | 45 µM | > 50 µM | 28.9 µM |  |  |  |  |  |  |  |  |  |  |  | 
CC(C)=CC[C@@H](O)C1=CC(=O)c2c(O)ccc(O)c2C1=O [SHIKONIN] | 4.89 | 6.7 µM | 12.5 µM | 6.2 µM | 7.8 µM | 5.7 µM | 16 µM |  |  |  |  |  |  |  |  |  |  |  | 
CCOc1ccc(C(O)c2cc(O)c3c(c2O)C(=O)c2ccccc2C3=O)cc1 (centres undefined) | < 4.30 | > 50 µM | > 50 µM | > 50 µM | > 50 µM | > 50 µM | > 50 µM |  |  |  |  |  |  |  |  |  |  |  | 
O=C1c2ccccc2C(=O)c2c(O)c(C(c3ccc(C(F)(F)F)cc3)N(CCCl)CCCl)cc(O)c21 (centres undefined) | < 4.30 | > 50 µM | 16.1 µM | > 50 µM | > 50 µM | > 50 µM | > 50 µM |  |  |  |  |  |  |  |  |  |  |  | 
COc1cccc2c1C(=O)c1c(O)c3c(c(O)c1C2=O)C[C@@](O)(C(=O)CO)C[C@@H]3O[C@H]1C[C@H](N)[C@H](O)[C@H](C)O1 [DOXORUBICIN] | 5.46 | 3.3 µM | 1.2 µM | 2.6 µM | 3.8 µM | 1.5 µM | 2.3 µM |  |  |  |  |  |  |  |  |  |  |  | 
O=C1c2ccccc2C(=O)c2c(O)c(C(O)c3ccc(Br)s3)cc(O)c21 (centres undefined) | < 4.30 | 48.1 µM | 14.4 µM | 25.1 µM | 43.9 µM | 39.4 µM | 23 µM |  |  |  |  |  |  |  |  |  |  |  | 
O=C1c2ccccc2C(=O)c2c(O)c(C(O)c3ccc(Cl)cc3Cl)cc(O)c21 (centres undefined) | < 4.30 | 18.9 µM | 12.7 µM | 12.5 µM | 34.6 µM | 28.4 µM | 17.8 µM | Active | 11.56% | Active | 40.13% | Dose-dependent effect | 7.38% | Active | 32.87% | Active | Active | Active | Active
O=C1c2ccccc2C(=O)c2c(O)c(C(O)c3ccc(OC(F)(F)F)cc3)cc(O)c21 (centres undefined) | < 4.30 | 32 µM | 13.7 µM | 26.5 µM | 39.5 µM | 30.5 µM | 22.3 µM |  |  |  |  |  |  |  |  |  |  |  | 
O=C1c2ccccc2C(=O)c2c(O)c(C(O)c3cc(Br)cs3)cc(O)c21 (centres undefined) | < 4.30 | 18.4 µM | 19.7 µM | 23.9 µM | 33.3 µM | 17.5 µM | 41.5 µM |  |  |  |  |  |  |  |  |  |  |  | 
COc1ccc(C(O)c2cc(O)c3c(c2O)C(=O)c2ccccc2C3=O)cc1OC (centres undefined) | < 4.30 | > 50 µM | > 50 µM | > 50 µM | > 50 µM | > 50 µM | > 50 µM |  |  |  |  |  |  |  |  |  |  |  | 
O=C1c2ccccc2C(=O)c2c(O)c(C(c3ccsc3)N(CCCl)CCCl)cc(O)c21 (centres undefined) | 4.45 | 19.3 µM | 23.1 µM | 13.7 µM | 22.4 µM | 22.5 µM | 21.9 µM |  |  |  |  |  |  |  |  |  |  |  | 
Cc1ccc(C(O)c2cc(O)c3c(c2O)C(=O)c2ccccc2C3=O)s1 (centres undefined) | < 4.30 | 42.3 µM | 23.6 µM | 44.7 µM | > 50 µM | > 50 µM | 35.8 µM |  |  |  |  |  |  |  |  |  |  |  | 
O=C1c2ccccc2C(=O)c2c(O)c(C(O)c3ccsc3)cc(O)c21 (centres undefined) | < 4.30 | > 50 µM | > 50 µM | > 50 µM | > 50 µM | > 50 µM | > 50 µM |  |  |  |  |  |  |  |  |  |  |  | 
N#Cc1ccc(C(O)c2cc(O)c3c(c2O)C(=O)c2ccccc2C3=O)cc1 (centres undefined) | < 4.30 | 14.9 µM | 12.6 µM | 12.8 µM | 26.9 µM | 28.6 µM | 17.6 µM |  |  |  |  |  |  |  |  |  |  |  | 
COc1ccc(C(O)c2cc(O)c3c(c2O)C(=O)c2ccccc2C3=O)cc1Br (centres undefined) | < 4.30 | 29.8 µM | 16.7 µM | 12.8 µM | 43.7 µM | 45.6 µM | 24.1 µM |  |  |  |  |  |  |  |  |  |  |  | 
CSc1ccc(C(c2cc(O)c3c(c2O)C(=O)c2ccccc2C3=O)N(CCCl)CCCl)cc1 (centres undefined) | < 4.30 | > 50 µM | 15.4 µM | 20.6 µM | 41.4 µM | 39.3 µM | > 50 µM |  |  |  |  |  |  |  |  |  |  |  | 
O=C1c2ccccc2C(=O)c2c(O)ccc(O)c21 [QUINIZARIN] | < 3.70 | > 200 µM | > 200 µM | > 200 µM | > 200 µM | > 200 µM | > 200 µM |  |  |  |  |  |  |  |  |  |  |  | 
CSc1ccc(C(O)c2cc(O)c3c(c2O)C(=O)c2ccccc2C3=O)cc1 (centres undefined) | < 4.30 | > 50 µM | > 50 µM | > 50 µM | > 50 µM | > 50 µM | > 50 µM |  |  |  |  |  |  |  |  |  |  |  | 
